Experimental findings from PMC7866801, “Design and Synthesis of N-Substituted 3,4-Pyrroledicarboximides as Potential Anti-Inflammatory Agents” (International Journal of Molecular Sciences, 2021) are described below.

The target in one test is T1, COX-1 (Ovis aries, UniProt P05979).
T1 construct: gene PTGS1; homodimer
T1 sequence (P05979 25-600): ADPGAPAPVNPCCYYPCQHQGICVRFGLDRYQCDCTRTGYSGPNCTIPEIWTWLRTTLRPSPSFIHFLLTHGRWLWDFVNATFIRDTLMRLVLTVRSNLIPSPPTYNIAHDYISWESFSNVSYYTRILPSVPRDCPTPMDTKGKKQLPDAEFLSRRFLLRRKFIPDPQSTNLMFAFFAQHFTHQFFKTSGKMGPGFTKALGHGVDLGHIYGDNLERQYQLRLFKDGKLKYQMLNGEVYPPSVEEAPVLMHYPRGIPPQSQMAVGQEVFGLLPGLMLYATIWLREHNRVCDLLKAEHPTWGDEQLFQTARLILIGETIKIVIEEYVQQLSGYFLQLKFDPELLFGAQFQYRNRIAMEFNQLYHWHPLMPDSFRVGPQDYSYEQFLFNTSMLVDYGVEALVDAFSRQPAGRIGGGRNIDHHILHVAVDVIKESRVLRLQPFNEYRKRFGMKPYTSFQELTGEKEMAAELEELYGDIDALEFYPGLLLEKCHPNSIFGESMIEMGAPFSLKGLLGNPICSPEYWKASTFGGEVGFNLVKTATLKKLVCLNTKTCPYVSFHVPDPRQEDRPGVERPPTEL
Kind of test: colorimetric COX peroxidase inhibitor screening kit, […] nm. The format is biochemical. Conditions: tested at 100 µM only, 2 min, RT; unreliable.

The next test concerns the target T2, COX-2 (Homo sapiens, UniProt P35354).
T2 construct: gene PTGS2; homodimer
T2 sequence (P35354 18-604): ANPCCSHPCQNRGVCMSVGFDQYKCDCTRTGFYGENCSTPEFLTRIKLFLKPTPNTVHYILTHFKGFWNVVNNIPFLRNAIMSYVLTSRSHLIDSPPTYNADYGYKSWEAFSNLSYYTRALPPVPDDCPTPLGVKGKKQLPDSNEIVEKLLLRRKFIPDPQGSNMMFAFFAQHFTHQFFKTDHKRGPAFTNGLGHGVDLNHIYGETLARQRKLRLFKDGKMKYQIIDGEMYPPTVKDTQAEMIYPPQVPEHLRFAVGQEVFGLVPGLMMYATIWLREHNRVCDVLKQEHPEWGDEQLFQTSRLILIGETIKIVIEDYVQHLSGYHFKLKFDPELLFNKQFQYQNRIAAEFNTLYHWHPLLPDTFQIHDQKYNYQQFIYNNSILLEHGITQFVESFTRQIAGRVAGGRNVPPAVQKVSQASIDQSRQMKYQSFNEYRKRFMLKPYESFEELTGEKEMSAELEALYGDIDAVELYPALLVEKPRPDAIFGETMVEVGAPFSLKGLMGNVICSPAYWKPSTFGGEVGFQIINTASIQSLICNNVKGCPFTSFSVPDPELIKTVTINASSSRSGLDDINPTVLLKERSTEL
The test is described as above. To be noted: tested at 100 µM only, 2 min, RT; unreliable. The format is biochemical.

Consider `Cc1c2c(c(C)n1-c1ccccc1)C(=O)N(CN1CCN(c3ccc(Br)cc3)CC1)C2=O` [2a, 4,6-dimethyl-5-phenyl-2{[4-(p-bromophenyl)-1-piperazinyl]methyl}pyrrolo[3,4-c]pyrrole-1,3(2H,5H)-dione], for which, on COX-1, the “Cyclooxygenase Inhibition Assay IC50 [μM] / COX-1” value is reported as 87.90 ± 0.03 µM. For the same compound, the “Cyclooxygenase Inhibition Assay IC50 [μM] / COX-2” value at COX-2 came out at 60.85 ± 0.02 µM.

Consider `Cc1c2c(c(C)n1-c1ccccc1Cl)C(=O)N(CN1CCN(c3ccc(Br)cc3)CC1)C2=O` [2b, 4,6-dimethyl-5-(o-chlorophenyl)-2-{[4-(p-bromophenyl)-1-piperazinyl]methyl}pyrrolo[3,4-c]pyrrole-1,3(2H,5H)-dione], for which the “Cyclooxygenase Inhibition Assay IC50 [μM] / COX-1” value at COX-1 amounted to 94.17 ± 0.04 µM. Besides, the “Cyclooxygenase Inhibition Assay IC50 [μM] / COX-2” value on COX-2 stood at 61.46 ± 0.02 µM.

In the case of `Cc1c2c(c(C)n1-c1ccccc1)C(=O)N(CN1CCN(c3ccccc3C#N)CC1)C2=O` [2c, 4,6-dimethyl-5-phenyl-2{[4-(o-cyanophenyl)-1-piperazinyl]methyl}pyrrolo[3,4-c]pyrrole-1,3(2H,5H)-dione], the “Cyclooxygenase Inhibition Assay IC50 [μM] / COX-1” value at COX-1 was determined as 94.56 ± 0.02 µM. The “Cyclooxygenase Inhibition Assay IC50 [μM] / COX-2” value at COX-2 came out at 61.53 ± 0.09 µM.

Take `Cc1c2c(c(C)n1-c1ccccc1)C(=O)N(CN1CCN(c3cccc(C(F)(F)F)c3)CC1)C2=O` [2d, 4,6-dimethyl-5-phenyl-2{[4-(m-trifluoromethylphenyl)-1-piperazinyl]methyl}pyrrolo[3,4-c]pyrrole-1,3(2H,5H)-dione]: the “Cyclooxygenase Inhibition Assay IC50 [μM] / COX-1” value at COX-1 is reported as 77.46 ± 0.06 µM. Besides, the “Cyclooxygenase Inhibition Assay IC50 [μM] / COX-2” value at COX-2 is recorded as 60.24 ± 0.03 µM.

Regarding `CCCCn1c(C)c2c(c1C)C(=O)N(CN1CCN(c3ccc(C)cc3)CC1)C2=O` [2e, 4,6-dimethyl-5-n-butyl-2-{[4-(p-methylphenyl)-1-piperazinyl]methyl}pyrrolo[3,4-c]pyrrole-1,3-(2H,5H)-dione], the “Cyclooxygenase Inhibition Assay IC50 [μM] / COX-1” value at COX-1 is given as 78.73 ± 0.06 µM. In addition, the “Cyclooxygenase Inhibition Assay IC50 [μM] / COX-2” value on COX-2 is given as 60.75 ± 0.02 µM.

As to `CCCCn1c(C)c2c(c1C)C(=O)N(CN1CCN(c3ncccn3)CC1)C2=O` [2f, 4,6-dimethyl-5-n-butyl-2-{[4-(2-pyrimidinyl)piperazin-1-yl]methyl}pyrrolo[3,4-c]pyrrole-1,3(2H,5H)-dione], the “Cyclooxygenase Inhibition Assay IC50 [μM] / COX-1” value on COX-1 was found to be 80.51 ± 0.06 µM. In addition, on COX-2, the “Cyclooxygenase Inhibition Assay IC50 [μM] / COX-2” value is on record as 58.87 ± 0.08 µM.

As to `Cc1c2c(c(C)n1-c1ccccc1)C(=O)N(CN1CCN(C3CCCCC3)CC1)C2=O` [2g, 4,6-dimethyl-5-phenyl-2-[(4-cyclohexyl-1-piperazinyl)methyl]pyrrolo[3,4-c]pyrrole-1,3(2H,5H)-dione], at COX-1, the “Cyclooxygenase Inhibition Assay IC50 [μM] / COX-1” value is reported as 80.25 ± 0.06 µM. Further, the “Cyclooxygenase Inhibition Assay IC50 [μM] / COX-2” value on COX-2 is listed as 59.92 ± 0.05 µM.

Turning to `Cc1c2c(c(C)n1-c1ccccc1Cl)C(=O)N(CN1CCN(C3CCCCC3)CC1)C2=O` [2h, 4,6-dimethyl-5-(o-chlorophenyl)-2-[(4-cyclohexyl-1-piperazinyl)methyl]pyrrolo[3,4-c]pyrrole-1,3(2H,5H)-dione], the “Cyclooxygenase Inhibition Assay IC50 [μM] / COX-1” value at COX-1 came out at 76.54 ± 0.06 µM. Further, the “Cyclooxygenase Inhibition Assay IC50 [μM] / COX-2” value on COX-2 was 59.37 ± 0.05 µM.

With `CCCCn1c(C)c2c(c1C)C(=O)N(CN1CCN(C3CCCCC3)CC1)C2=O` [2i, 4,6-dimethyl-5-n-butyl-2-[(4-cyclohexyl-1-piperazinyl)methyl]pyrrolo[3,4-c]pyrrole-1,3(2H,5H)-dione], the “Cyclooxygenase Inhibition Assay IC50 [μM] / COX-1” value at COX-1 stood at 79.87 ± 0.07 µM. In addition, the “Cyclooxygenase Inhibition Assay IC50 [μM] / COX-2” value on COX-2 stood at 60.96 ± 0.04 µM.

`CCCCn1c(C)c2c(c1C)C(=O)N(CN1CCN(CCO)CC1)C2=O` [2j, 4,6-dimethyl-5-n-butyl-2-{[4-hydroxyethyl-1-piperazinyl]methyl}pyrrolo[3,4-c]pyrrole-1,3(2H,5H)-dione]: the “Cyclooxygenase Inhibition Assay IC50 [μM] / COX-1” value at COX-1 was determined as 84.90 ± 0.05 µM. Moreover, the “Cyclooxygenase Inhibition Assay IC50 [μM] / COX-2” value at COX-2 worked out at 59.77 ± 0.11 µM.

With `Cc1c2c(c(C)n1-c1ccccc1)C(=O)N(CN1CCNCC1)C2=O` [2k, 4,6-dimethyl-5-phenyl-2-[(piperazinyl)methyl]pyrrolo[3,4-c]pyrrole-1,3(2H,5H)-dione], the “Cyclooxygenase Inhibition Assay IC50 [μM] / COX-1” value on COX-1 is 83.47 ± 0.05 µM. Also, on COX-2, the “Cyclooxygenase Inhibition Assay IC50 [μM] / COX-2” value worked out at 58.43 ± 0.06 µM.

With `Cc1c2c(c(C)n1-c1ccccc1)C(=O)N(CN1CCOCC1)C2=O` [2l, 4,6-dimethyl-5-phenyl-2-[(morpholinyl)methyl]pyrrolo[3,4-c]pyrrole-1,3(2H,5H)-dione], the “Cyclooxygenase Inhibition Assay IC50 [μM] / COX-1” value at COX-1 is given as 82.72 ± 0.04 µM. In addition, the “Cyclooxygenase Inhibition Assay IC50 [μM] / COX-2” value at COX-2 was determined as 59.33 ± 0.09 µM.

In the case of `CCCCn1c(C)c2c(c1C)C(=O)N(CN1CCC(c3ccccc3)CC1)C2=O` [2m, 4,6-dimethyl-5-n-butyl-2-[(4-phenyl-1-piperidinyl)methyl]pyrrolo[3,4-c]pyrrole-1,3(2H,5H)-dione], the “Cyclooxygenase Inhibition Assay IC50 [μM] / COX-1” value at COX-1 is 88.15 ± 0.02 µM. Besides, at COX-2, the “Cyclooxygenase Inhibition Assay IC50 [μM] / COX-2” value came out at 60.39 ± 0.02 µM.

With `CCCCn1c(C)c2c(c1C)C(=O)N(CN1CCC(O)(c3ccc(Br)cc3)CC1)C2=O` [2n, 4,6-dimethyl-5-n-butyl-2-{[4-(p-bromophenyl)-4-hydroxypiperidin-1-yl]methyl}pyrrolo[3,4-c]pyrrole-1,3(2H,5H)-dione], the “Cyclooxygenase Inhibition Assay IC50 [μM] / COX-1” value on COX-1 worked out at 77.59 ± 0.09 µM. In addition, the “Cyclooxygenase Inhibition Assay IC50 [μM] / COX-2” value at COX-2 turned out to be 57.65 ± 0.04 µM.

As for `CCCCn1c(C)c2c(c1C)C(=O)N(CN1CCC(O)(c3ccc(Cl)cc3)CC1)C2=O` [2o, 4,6-dimethyl-5-n-butyl-2-{[4-(p-chlorophenyl)-4-hydroxypiperidin-1-yl]methyl}pyrrolo[3,4-c]pyrrole-1,3(2H,5H)-dione], the “Cyclooxygenase Inhibition Assay IC50 [μM] / COX-1” value on COX-1 was determined as 78.25 ± 0.10 µM. Moreover, on COX-2, the “Cyclooxygenase Inhibition Assay IC50 [μM] / COX-2” value is 58.38 ± 0.16 µM.

For `CCCCn1c(C)c2c(c1C)C(=O)N(CN1CCC(O)(Cc3ccccc3)CC1)C2=O` [2p, 4,6-dimethyl-5-n-butyl-2-{[4-benzyl-4-hydroxypiperidin-1-yl]methyl}pyrrolo[3,4-c]pyrrole-1,3(2H,5H)-dione], on COX-1, the “Cyclooxygenase Inhibition Assay IC50 [μM] / COX-1” value is 82.94 ± 0.04 µM. In addition, the “Cyclooxygenase Inhibition Assay IC50 [μM] / COX-2” value on COX-2 is 59.37 ± 0.07 µM.
